Assay results as given in patent publication US7897789B2, “Vitamin D receptor modulators” (Eli Lilly and Company, priority 2003, dated 2011).
“And” between values parts separate entries of the source, which are not always exact repeats. Equal values may be shown once. Read-outs that look alike come from different tables or passages of the source.

How the values were obtained:
[1] = test system: KERtr cells; experiment: Keratinocyte proliferation assay; format: cell-based; conditions: Homo sapiens
Protocol: 5. The Keratinocyte Proliferation Assay
This Assay is indicative for the treatment of psoriasis.
(5) The Keratinocyte Proliferation Assay:
KERtr cells (Human skin keratinocyte transformed with a retrovirus vector, obtained from ATCC) were plated in 96-well flat-bottomed plates (3000 cells/well) in 100 μl keratinocyte serum free medium supplemented with bovine pituitary extract in the absence of EGF (Life Technologies, Rockville, Md.) and incubated at 37° C. for two days. The cells were treated with various concentrations of VDR ligands (ten-fold serial dilution from 10,000 nM to 0.1 nM in triplicate), dissolved in 100 μl keratinocyte serum free medium supplemented with bovine pituitary extract in the absence of EGF and incubated at 37° C. for 72 hr. […] Potency values (IC50) values were determined as the concentration (nM) of compound that elicited a half-maximal response.

[2] = test system: DBF mice; experiment: Mouse hypercalcemia assay; conditions: oral gavage for 6 days
Source text: The Mouse Hypercalcemia Assay
The Mouse Hypercalcemia Assay is a six day hypercalcemia test for toxicity and selectivity.
(4) Materials and Method for the Mouse Hypercalcemia Assay:
Weanling, virus-antibody-free, five to six weeks old female DBF mice (Harlan, Indianapolis, Ind.) are used for all the studies. Animals are allowed to acclimate to local vivarium conditions for 2 days. […] The animals then are divided into groups with 4-5 mice per group. Different doses of test compounds prepared in 10% Ethanol and 90% sesame oil are administered to mice orally via gavage for 6 days. 1α-25(OH)2D3 0.5 μg/kg/d was also given to one group of mice as the positive control. […] Raw data of group differences is assessed by analysis of variance (ANOVA) using Fisher's protected least significant difference (PLSD) where the significance level was P<0.05.

[3] = test system: rat osteocalcin promoter; experiment: OCN (osteocalcin) promoter assay; format: cell-based; conditions: RG-15 (ROS 17/2.8) cells
Protocol: 3. The OCN (Osteocalcin) Promoter Assay
The OCN Promoter Assay is an indicator and marker for osteoporosis. […] Preferred assay results are less than 50 nM.
(3) Materials and Method for the OCN Promoter Assay:
The activation of osteocalcin by VDR ligands was evaluated in a rat osteoblast-like cell line RG-15 (ROS 17/2.8) stably expressing rat osteocalcin promoter fused with luciferase reporter gene. […] Confluent RG-15 cells maintained in DMEM/F-12 medium (3:1) containing 5% FBS, 300 μg/ml G418 and at 37° C. under 5% CO2/95% air atmosphere were trypsinized (0.25% trypsin) and plated into white opaque 96-well cell culture plates (25000 cells/well). After 24 hr, cells (in DMEM/F-12 medium+2% FBS) were treated with various concentrations of compounds, dissolved in DMSO. The final DMSO concentration remained at 0.01% (v/v). After 48 hr treatment, the medium was removed, cells were lysed with 50 μl of lysis buffer (From Luciferase reporter assay system, Roche Diagnostics, Indianapolis, Ind.) and assayed for luciferase activity using the Luciferase Reporter Gene Assay kit from Boehringer Mannheim as per manufacturer's specifications.

[4] = target: T1, VDR (Homo sapiens, UniProt P11473); experiment: Caco-2 cell co-transfection assay (VDR CTF); format: cell-based; conditions: Caco-2 cells, pGal4-VDR-LBD luciferase co-transfection; Table 1
T1 construct: the receptor expression vector pGal4-VDR-LBD (10 ng); expressed in transfected cells; host or cells: Caco-2 cells
T1 sequence (P11473 127-423 limits assumed): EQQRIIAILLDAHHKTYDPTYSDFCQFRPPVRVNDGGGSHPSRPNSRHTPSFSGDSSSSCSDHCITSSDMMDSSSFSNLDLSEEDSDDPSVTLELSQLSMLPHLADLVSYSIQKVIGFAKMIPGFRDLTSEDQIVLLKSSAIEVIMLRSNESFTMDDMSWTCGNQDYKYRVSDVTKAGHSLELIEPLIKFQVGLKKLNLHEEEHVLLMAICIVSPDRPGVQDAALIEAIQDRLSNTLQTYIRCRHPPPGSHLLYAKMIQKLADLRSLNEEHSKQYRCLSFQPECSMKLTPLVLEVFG
Protocol: 2. The Caco-2 Cell Co-Transfection Assay:
The Caco-2 cell assay is an indicator for the undesirable condition of hypercalcemia. This co-transfection assay is a surrogate assay for in vivo calcemic activity of VDR ligands. […] Preferred assay results are greater than 1000 nM.
(2) Materials and Method for The Caco-2 Cell Assay:
Caco-2 cells, grown in phenol red free, DMEM (Invitrogen, Carlsbad, Calif.) containing 10% charcoal-stripped FCS (Hyclone, Logan, Utah), were transfected with Fugene 6 reagent (Roche Diagnostics, Indianapolis, Ind.). Cells (5000/well) were plated 18 h before transfection in a 96 well plate. The Cells were transfected with Gal4-responsive reporter pFRLuc (150 ng, Stratagene, La Jolla Calif.) and the receptor expression vector pGal4-VDR-LBD (10 ng), along with Fugene 6 reagent (0.2 μl/well). The DNA-Fugene complex was formed by incubating the mixture for 30 min at room temperature. The cells were transfected in triplicate for 5 h, and treated with various concentrations of VDR ligands (form 0.01 nM to 10,000 nM concentration range) 18 h post-transfection. The luciferase activity was quantified using Steady-Glo reagent kit (Promega, Madison, Wis.) as per manufacturer's specifications.

[5] = target: T2, RXR-VDR heterodimer (Homo sapiens, UniProt P11473); experiment: RXR-VDR heterodimerization assay (SaOS-2 cells); format: cell-based; conditions: Gal4-RXR / VP16-VDR-LBD luciferase reporter, Table 1
T2 construct: Add the Gal4-RXR-DEF and VP16-VDR-LBD; expressed in transfected cells; host or cells: SaOS-2 cells
T2 sequence (P11473 127-423 limits assumed): T1 sequence (P11473 127-423 limits assumed)
T2 sequence (P19793 201-462 partner limits assumed): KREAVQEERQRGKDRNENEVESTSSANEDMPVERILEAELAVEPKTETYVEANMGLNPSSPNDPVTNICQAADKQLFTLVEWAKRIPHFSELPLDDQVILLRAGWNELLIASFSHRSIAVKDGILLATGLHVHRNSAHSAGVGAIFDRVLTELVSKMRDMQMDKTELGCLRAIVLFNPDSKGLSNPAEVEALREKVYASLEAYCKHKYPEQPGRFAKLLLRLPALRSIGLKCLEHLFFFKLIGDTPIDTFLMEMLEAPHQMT
Protocol: 1. The RXR-VDR HeterodimerAssay:
This assay provides the VDR activity of a test compound.
(1) Materials and Method for RXR-VDR Heterodimerization Assay:
Luciferase Assay Reagent: • Use Steady-Glo Luciferase Reagent from Promega (Cat #E2550) Consists of: a. E2533 Assay Substrate, lyopholized product and b. E2543 Assay Buffer. • Thaw at room temperature • Store Cell Harvesting Aspirate media from culture flask, rinse cells with HBSS and aspirate. Add trypsin and incubate. When cells appear detached, resuspend cells in growth media. Transfer into a new flask with fresh growth media for passaging the cells. Plate well plates and two extra plates A. Cell Count Mix the cell suspension using pipette Use Hematocytometer to count the cells Load cell suspension onto the hemocytometer chamber Count cells. […] In sterile flask add cell suspension to plating media. Mix. Add cells/well. Place the cells in the incubator. Cells should be about 75% confluent prior to transfection. DAY 2: Transfection Step 1: DNA and Media Add plain DMEM media to tubes for mixing the DNA Add the Reporter gene pFR-LUC Add the Gal4-RXR-DEF and VP16-VDR-LBD Step 2: FuGENE and Media Prepare plain DMEM media in a ubes for mixing FuGENE Add FuGENE 6 Transfection Reagent Incubate Step 3: FuGENE, DNA and Media Complex Add FuGENE Media complex from step 2 to DNA Media complex from step 1 Incubate Step 4: FuGENE, DNA and Media Complex to-well plate Add FuGENE-DNA-Media complex from step 3 to each plate Incubate. […] Day 4: Luciferase Assay Read the plates after drug treatment Remove part of media from all the wells and leave remainder Add Steady-Glo Luciferase Reagent mixture/wells Incubate Count each well using a Luminescence counter, Top Count NXT by Packard
Set a delay between plates to reduce the background.

[6] = comparison compounds, Table 4, read-out: Kera. Prolif. IC50
[7] = Rattus norvegicus, comparison compounds, Table 3
[8] = 72 h, BrdU incorporation, Table 2, read-out: Kera. Prolif. IC50
[9] = serum ionized calcium 6 hours after last dosing, Table 1
[10] = Rattus norvegicus, 48 h, 48 hr treatment, Table 1

| SMILES | IC50 [1, 8] [nM] | EC50 [4] [nM] | EC50 [3, 10] [nM] | EC50 [5] | further results |
| --- | --- | --- | --- | --- | --- |
| CCC(CC)(c1ccc(OCC(O)CO)c(C)c1)c1ccc(OCC(O)C(C)(C)C)c(C)c1 (stereo not drawn) [BB, 3-(4-{1-Ethyl-1-[4-(2-hydroxy-3,3-dimethyl-butoxy)-3-methyl-phenyl]-propyl}-2-methyl-phenoxy)-propane-1,2-diol, reference compound] | – | – | – | – | IC50 [1, 6]: 10 nM; Mouse Hypercal ([2]; comparison compounds, Table 3): 20 µg/kg/day; EC50 [3, 7]: 8.24 nM |
| CCC(CC)(c1ccc(OCC(=O)C(C)(C)C)c(C)c1)c1ccc(OCC(=O)C(C)(C)C)c(C)c1 [DD, reference compound] | – | – | – | – | IC50 [1, 6]: 1060 nM; Mouse Hypercal ([2]; comparison compounds, Table 3): 1000 µg/kg/day; EC50 [3, 7]: 31.1 nM |
| CCC(CC)(c1ccc(OCC(=O)C(C)(C)C)c(C)c1)c1ccc(OC[C@H](O)C(C)(C)C)c(C)c1 [EE, reference compound] | – | – | – | – | Mouse Hypercal ([2]; comparison compounds, Table 3): 1000 µg/kg/day; EC50 [3, 7]: 341 nM |
| CCC(CC)(c1ccc(OCC(=O)C(C)(C)C)c(C)c1)c1cc2ccc(C(=O)O)cc2s1 [Ex 7, 2-{1-[4-(3,3-dimethyl-2-oxo-butoxy)-3-methyl-phenyl]-1-ethyl-propyl}-benzo[b]thiophene-6-carboxylic acid] | 1000 | 791 | 1 | – | Mouse Hypercal [2, 9]: >300 µg/kg/day |
| CCC(CC)(c1ccc(OCC(O)C(C)(C)C)c(C)c1)c1ccc2sc(C(=O)O)cc2c1 (stereo not drawn) [Ex 14, 5-{1-ethyl-1-[4-(2-hydroxy-3,3-dimethyl-butoxy)-3-methyl-phenyl]-propyl}-benzo[b]thiophene-2-carboxylic acid] | – | 941 | 6 | – | – |
| CCC(CC)(c1ccc(OCC(=O)C(C)(C)C)c(C)c1)c1ccc2sc(C(=O)NCC(=O)O)cc2c1 [Ex 15, [(5-{1-[4-(3,3-dimethyl-2-oxo-butoxy)-3-methyl-phenyl]-1-ethyl-propyl}-benzo[b]thiophene-2-carbonyl)-amino]-acetic acid] | – | – | – | 539 nM and 63 nM | Mouse Hypercal [2, 9]: <1000 µg/kg/day |
| CCC(CC)(c1ccc(OCC(O)C(C)(C)C)c(C)c1)c1ccc2sc(C(=O)NCC(=O)O)cc2c1 (stereo not drawn) [Ex 16, [(5-{1-ethyl-1-[4-(2-hydroxy-3,3-dimethyl-butoxy)-3-methyl-phenyl]-propyl}-benzo[b]thiophene-2-carbonyl)-amino]-acetic acid] | 384 | 938 | – | 254 nM and 108 nM | – |
| CCC(O)(CC)COc1ccc(C(CC)(CC)c2cc3ccc(C(=O)O)cc3s2)cc1C [Ex 22, 2-{1-Ethyl-1-[4-(2-ethyl-2-hydroxy-butoxy)-3-methyl-phenyl]-propyl}benzo[b]thiophene-6-carboxylic acid] | 154 | 1060 | – | 458 nM and 139 nM | – |
| CCOC(=O)c1cc2cc(C(CC)(CC)c3ccc(OCC4(C(C)(C)C)OCCO4)c(C)c3)ccc2s1 [Ex 23, 5-{1-[4-(2-tert-Butyl-[1,3]dioxolan-2-ylmethoxy)-3-methyl-phenyl]-1-ethyl-propyl}-benzo[b]thiophene-2-carboxylic acid ethyl ester] | – | – | 161 | – | – |
| CCC(CC)(c1ccc(OCC(=O)C(C)(C)C)c(C)c1)c1cc2cc(OS(C)(=O)=O)ccc2s1 [Ex 24, methanesulfonic acid 2-{1-[4-(3,3-dimethyl-2-oxo-butoxy)-3-methyl-phenyl]-1-ethyl-propyl}-benzo[b]thiophen-5-yl ester] | 232 | – | 215 | 695 nM | – |
| CCC(CC)(c1ccc(OCC(O)C(C)(C)C)c(C)c1)c1ccc2cc(C(=O)N(C)C)sc2c1 (stereo not drawn) [Ex. 4, 6-{1-ethyl-1-[4-(2-hydroxy-3,3-dimethyl-butoxy)-3-methyl-phenyl]-propyl}-benzo[b]thiophene-2-carboxylic acid dimethylamide] | – | 555 | 20 | – | EC50 ([3]; 48 hr treatment, Table 1): 15 nM |
| CCC(CC)(c1ccc(OCC(=O)C(C)(C)C)c(C)c1)c1cc2ccc(C(=O)N(C)C)cc2s1 [Ex. 9, 2-{1-[4-(3,3-Dimethyl-2-oxo-butoxy)-3-methyl-phenyl]-1-ethyl-propyl}-benzo[b]thiophene-6-carboxylic acid dimethylamide] | 1000 | 1270 | 41 | – | EC50 ([3]; 48 hr treatment, Table 1): 35 nM |
| CCC(CC)(c1ccc(OCC(O)C(C)(C)C)c(C)c1)c1cc2ccc(C(=O)N(C)C)cc2s1 (stereo not drawn) [Ex. 10, 2-{1-Ethyl-1-[4-(2-hydroxy-3,3-dimethyl-butoxy)-3-methyl-phenyl]-propyl}-benzo[b]thiophene-6-carboxylic acid dimethylamide] | 573 | 690 | 24 | 323 nM | EC50 ([3]; 48 hr treatment, Table 1): 18 nM |
| CCC(CC)(c1ccc(OCC(O)C(C)(C)C)c(C)c1)c1cc2ccc(C(=O)NCC(=O)O)cc2s1 (stereo not drawn) [Ex. 12, [(2-{1-Ethyl-1-[4-(2-hydroxy-3,3-dimethyl-butoxy)-3-methyl-phenyl]-propyl}-benzo[b]thiophene-6-carbonyl)-amino]-acetic acid] | 1 | 137 | 0.3 | 19 nM and 2 nM | – |
| CCC(CC)(c1ccc(OCC(=O)C(C)(C)C)c(C)c1)c1ccc2sc(C(=O)O)cc2c1 [Ex. 13, 5-{1-[4-(3,3-dimethyl-2-oxo-butoxy)-3-methyl-phenyl]-1-ethyl-propyl}-benzo[b]thiophene-2-carboxylic acid] | – | 994 | – | 488 nM and 111 nM | Mouse Hypercal [2, 9]: >300 µg/kg/day |
